Results taken from patent EP1743889A1, “Sustituted pyrazoline compounds, having predetermined stereochemistry, for reducing triglycerides in blood” (Laboratorios del Dr. Esteve S.A., priority 2005, dated 2007).

System: triglycerides in blood plasma
Assay: In-vivo testing for regulation of triglycerides in blood plasma
Set-up: species or system male mice B6 Lep ob/ob
Settings: obese mice fed with high fat diet; 30 mg/kg/day, p.o., 14 days treatment
Excerpt: This effect is probed in obese mice fed with high fat diet. In the following paragraphs the method of this study is described.
The study is done using six weeks old male mice B6 Lep ob/ob, obtained from Charles River (France). Mice are divided in 3 groups: I (control), II (vehicle), III (example 0).
The animals of the group I receive the standard diet (D-12450B, Research Diets, NJ, USA).
The animals of the groups II and III are fed with a High Fat Diet (D-12492, Research Diets, NJ, USA), in both cases for 7 weeks (References 1 and 2).
The animals of the groups III are fed with a High Fat Diet (D-12492, Research Diets, NJ, USA), in both cases for 7 weeks (References 1 and 2).
At the end of the feeding period of 7 weeks, the treatment period (14 days) is started: Group II mice receive the vehicle (10 ml/kg/day, po, of the aqueous solution of acacia gum, 5% W/V). Group III is administered with 30 mg/kg/day, p.o., of the inventive compound (R)-5-(4-chlorophenyl)-1-(2,4-dichlorophenyl)-4,5-dihydro-pyrazole-3-carboxylic acid according to Example 0. […] The three groups of mice have the same diet than in the previous period.
At the end of the 14 days period of treatment, the blood levels of triglicerides of the animals are determined.
The analysis of the whole blood samples is done using test strips "Lipid panel" and the photometric Analyzer Cardio-Check Test System, from PA Instruments Polymer […]

O=C(O)C1=NN(c2ccc(Cl)cc2Cl)[C@@H](c2ccc(Cl)cc2)C1 [Example 0, (R)-5-(4-chlorophenyl)-1-(2,4-dichlorophenyl)-4,5-dihydro-pyrazole-3-carboxylic acid]
blood levels of triglicerides: inhibitor of high blood levels of triglicerides
